According to PMC9510668 (Frontiers in Pharmacology, 2022):
Read-outs that look alike come from different tables or passages of the source.

Tests used:
CYP2B6 = conditions: ref Food and Drug Administration, 2009; Yamada et al., 2020; cited from earlier work
[1] = Physicochemical parameters (literature / model input); conditions: mean value of literature values, used in the model
Caco-2 cell = system: Caco-2 cell; design: method as in Food and Drug Administration, 2009; conditions: ref Food and Drug Administration, 2009; cited from earlier work
MATE2-K = system: MATE2-K; design: method as in Sauzay et al., 2016; conditions: ref Sauzay et al., 2016; cited from earlier work
CYP3A4 [2] = conditions: 2020, cited from earlier work
UGT1A1 = conditions: ref Xu et al., 2010; cited from earlier work
OCT2 = system: OCT2; design: method as in Sauzay et al., 2016; conditions: ref Sauzay et al., 2016; cited from earlier work
MATE1 = system: MATE1; design: method as in Sauzay et al., 2016; conditions: ref Sauzay et al., 2016; cited from earlier work
BCRP1 [3] = system: BCRP1; design: method as in Minocha et al., 2012; Boudou-Rouquette et al., 2016; conditions: in vitro; ref Minocha et al., 2012; Boudou-Rouquette et al., 2016; cited from earlier work
[4] = cited from earlier work
BCRP1 [5] = assay: BCRP1 efflux transport; assay type: in vitro ADME; conditions: calculated from literature data, PAZ 5 μM, 60-120 min; ref Minocha et al., 2012
CYP3A4 [6] = conditions: ref Food and Drug Administration, 2009; Yamada et al., 2020; cited from earlier work
[7] = cited from earlier work; remark: listed apart in the source
[8] = 50 mg OD for 21 consecutive days, Day 1, ref Hurwitz et al., 2009
[9] = 50 mg OD for 21 consecutive days, Day 22, ref Hurwitz et al., 2009
[10] = 100 mg OD for 21 consecutive days, Day 1, ref Hurwitz et al., 2009
[11] = 100 mg OD for 21 consecutive days, Day 22, ref Hurwitz et al., 2009
[12] = 200 mg OD for 21 consecutive days, Day 1, ref Hurwitz et al., 2009
[13] = 200 mg OD for 21 consecutive days, Day 22, ref Hurwitz et al., 2009
[14] = 300 mg twice daily for 21 consecutive days, Day 1, ref Hurwitz et al., 2009
[15] = 300 mg twice daily for 21 consecutive days, Day 22, ref Hurwitz et al., 2009
[16] = 400 mg OD for 21 consecutive days, Day 1, ref Hurwitz et al., 2009
[17] = 400 mg OD for 21 consecutive days, Day 22, ref Hurwitz et al., 2009
[18] = 400 mg oral suspension, ref Heath et al., 2012
[19] = 400 mg tablet, arithmetic mean (range), ref Deng et al., 2013
[20] = 400 mg twice daily for 21 consecutive days, Day 1, ref Hurwitz et al., 2009
[21] = 400 mg twice daily for 21 consecutive days, Day 22, ref Hurwitz et al., 2009
[22] = 400 mg whole tablet, ref Heath et al., 2012
[23] = 600 mg OD for 21 consecutive days, Day 1, ref Hurwitz et al., 2009
[24] = 600 mg OD for 21 consecutive days, Day 22, ref Hurwitz et al., 2009
[25] = 800 mg OD for 21 consecutive days, Day 1, ref Hurwitz et al., 2009
[26] = 800 mg OD for 21 consecutive days, Day 22, ref Hurwitz et al., 2009
[27] = 1000 mg OD for 21 consecutive days, Day 1, ref Hurwitz et al., 2009
[28] = 1000 mg OD for 21 consecutive days, Day 22, ref Hurwitz et al., 2009
[29] = 1400 mg OD for 21 consecutive days, Day 1, ref Hurwitz et al., 2009
[30] = 1400 mg OD for 21 consecutive days, Day 22, ref Hurwitz et al., 2009
[31] = 2000 mg OD for 21 consecutive days, Day 1, ref Hurwitz et al., 2009
[32] = 2000 mg OD for 21 consecutive days, Day 22, ref Hurwitz et al., 2009
[33] = ref Food and Drug Administration, 2009

For `Cc1ccc(Nc2nccc(N(C)c3ccc4c(C)n(C)nc4c3)n2)cc1S(N)(=O)=O` [PAZ, pazopanib], the “Inducer of CYP2B6” value (CYP2B6) is listed as “moderate inducer”, the LogP [1] is listed as 3.49 and the “Papp, Caco-2 cell permeability” value (Caco-2 cell) is listed as 16.9 ✕10^−6 cm⋅s^−1. For the same compound, the Ki (MATE2-K) was 3.3 µM, the “Inducer of CYP3A4” value (CYP3A4 [2]; ref Food and Drug Administration, 2009, Yamada et al.) was “moderate inducer” and the “Emax CYP3A4, maximum inductive effect” value (CYP3A4 [2]; ref Yamada et al.) was 2.43 µM. The IC50 (UGT1A1) was 1200 nM, the Ki (OCT2) was 3000 nM and the Ki (MATE1) was 1700 nM. The “Substrate for BCRP1” value (BCRP1 [3]) was “moderate substrate”, the “AUC0-24, Observation” value [4, 8] was 51.8 µg·h/mL and the “Cmax, Observation” value [4, 8] was 3.3 µg/mL. The “Ctrough, Observation” value [4, 8] was 1.5 µg/mL, the “Tmax, Observation” value [4, 8] was 3.0 h and the “AUC504-528, Observation” value [4, 9] was 157.7 µg·h/mL. For the same compound, the “Cmax, Observation” value [4, 9] was 8.4 µg/mL, the “Ctrough, Observation” value [4, 9] was 5.1 µg/mL and the “Tmax, Observation” value [4, 9] was 3.0 h. For the same compound, the “AUC0-24, Observation” value [4, 10] was 96.9 µg·h/mL, the “Cmax, Observation” value [4, 10] was 6.5 µg/mL and the “Ctrough, Observation” value [4, 10] was 2.8 µg/mL. The “Tmax, Observation” value [4, 10] was 4.0 h, the “AUC504-528, Observation” value [4, 11] was 160.7 µg·h/mL and the “Cmax, Observation” value [4, 11] was 11.0 µg/mL. For the same compound, the “Ctrough, Observation” value [4, 11] was 4.9 µg/mL, the “Tmax, Observation” value [4, 11] was 8.0 h and the “AUC0-24, Observation” value [4, 12] was 104.5 µg·h/mL. For the same compound, the “Cmax, Observation” value [4, 12] was 7.5 µg/mL, the “Ctrough, Observation” value [4, 12] was 2.9 µg/mL and the “Tmax, Observation” value [4, 12] was 3.0 h. The “AUC504-528, Observation” value [4, 13] was 384.8 µg·h/mL, the “Cmax, Observation” value [4, 13] was 23.7 µg/mL and the “Ctrough, Observation” value [4, 13] was 12.4 µg/mL. The “Tmax, Observation” value [4, 13] was 2.0 h, the “AUC0-24, Observation” value [4, 14] was 120.1 µg·h/mL and the “Cmax, Observation” value [4, 14] was 8.4 µg/mL. For the same compound, the “Ctrough, Observation” value [4, 14] was 4.1 µg/mL, the “Tmax, Observation” value [4, 14] was 4.0 h and the “Cmax, Observation” value [4, 15] was 36.7 µg/mL. The “Ctrough, Observation” value [4, 15] was 29.5 µg/mL, the “Tmax, Observation” value [4, 15] was 4.0 h and the “AUC0-24, Observation” value [4, 16] was 142.8 µg·h/mL. The “Cmax, Observation” value [4, 16] was 10.3 µg/mL, the “Ctrough, Observation” value [4, 16] was 3.9 µg/mL and the “Tmax, Observation” value [4, 16] was 4.0 h. For the same compound, the “AUC504-528, Observation” value [4, 17] was 447.1 µg·h/mL, the “Cmax, Observation” value [4, 17] was 21.8 µg/mL and the “Ctrough, Observation” value [4, 17] was 10.4 µg/mL. For the same compound, the “Tmax, Observation” value [4, 17] was 3.0 h, the “AUC0-72, Observation” value [4, 18] was 471.1 (NC) μg h mL^−1 and the “C24, Observation” value [4, 18] was 7.8 (NC) μg mL^−1. The “Cmax, Observation” value [4, 18] was 12.7 (NC) μg mL^−1, the “Tmax, Observation” value [4, 18] was 2.7 (NC) h and the “AUC0-72, Observation” value [4, 19] was 335.2 (259–582) μg h mL^−1. The “Cmax, Observation” value [4, 19] was 10.8 (7.3–12.5) μg mL^−1, the “Tmax, Observation” value [4, 19] was 8.0 (4.0–10.0) h and the “C24, Observation” value ([4]; 400 mg tablet, ref Deng et al., 2013) was 5.8 (NC) μg mL^−1. For the same compound, the “AUC0-24, Observation” value [4, 20] was 365.4 µg·h/mL, the “Cmax, Observation” value [4, 20] was 6.5 µg/mL and the “Ctrough, Observation” value [4, 20] was 3.3 µg/mL. The “Tmax, Observation” value [4, 20] was 3.0 h, the “Cmax, Observation” value [4, 21] was 36.1 µg/mL and the “Ctrough, Observation” value [4, 21] was 28.1 µg/mL. For the same compound, the “Tmax, Observation” value [4, 21] was 3.1 h, the “AUC0-72, Observation” value [4, 22] was 410.3 (NC) μg h mL^−1 and the “C24, Observation” value [4, 22] was 7.6 (NC) μg mL^−1. For the same compound, the “Cmax, Observation” value [4, 22] was 12.4 (NC) μg mL^−1, the “Tmax, Observation” value [4, 22] was 3.8 h and the “AUC0-24, Observation” value [4, 23] was 157.6 µg·h/mL. For the same compound, the “Cmax, Observation” value [4, 23] was 11.2 µg/mL, the “Ctrough, Observation” value [4, 23] was 4.7 µg/mL and the “Tmax, Observation” value [4, 23] was 3.0 h. The “AUC504-528, Observation” value [4, 24] was 333.7 µg·h/mL, the “Cmax, Observation” value [4, 24] was 18.2 µg/mL and the “Ctrough, Observation” value [4, 24] was 11.0 µg/mL. The “Tmax, Observation” value [4, 24] was 6.0 h, the “AUC0-24, Observation” value [4, 25] was 275.1 µg·h/mL and the “Cmax, Observation” value [4, 25] was 19.4 µg/mL. For the same compound, the “Ctrough, Observation” value [4, 25] was 9.4 µg/mL, the “Tmax, Observation” value [4, 25] was 3.5 h and the “AUC504-528, Observation” value [4, 26] was 743.3 µg·h/mL. For the same compound, the “Cmax, Observation” value [4, 26] was 45.1 µg/mL, the “Ctrough, Observation” value [4, 26] was 24.0 µg/mL and the “Tmax, Observation” value [4, 26] was 2.0 h. For the same compound, the “AUC0-24, Observation” value [4, 27] was 400.0 µg·h/mL, the “Cmax, Observation” value [4, 27] was 36.1 µg/mL and the “Ctrough, Observation” value [4, 27] was 12.2 µg/mL. For the same compound, the “Tmax, Observation” value [4, 27] was 2.0 h, the “AUC504-528, Observation” value [4, 28] was 796.1 µg·h/mL and the “Cmax, Observation” value [4, 28] was 53.2 µg/mL. The “Ctrough, Observation” value [4, 28] was 28.8 µg/mL, the “Tmax, Observation” value [4, 28] was 4.5 h and the “AUC0-24, Observation” value [4, 29] was 291.6 µg·h/mL. The “Cmax, Observation” value [4, 29] was 20.8 µg/mL, the “Ctrough, Observation” value [4, 29] was 8.2 µg/mL and the “Tmax, Observation” value [4, 29] was 3.0 h. The “AUC504-528, Observation” value [4, 30] was 536.2 µg·h/mL, the “Cmax, Observation” value [4, 30] was 32.7 µg/mL and the “Ctrough, Observation” value [4, 30] was 16.6 µg/mL. For the same compound, the “Tmax, Observation” value [4, 30] was 2.0 h, the “AUC0-24, Observation” value [4, 31] was 681.2 µg·h/mL and the “Cmax, Observation” value [4, 31] was 44.5 µg/mL. For the same compound, the “Ctrough, Observation” value [4, 31] was 12.2 µg/mL, the “Tmax, Observation” value [4, 31] was 4.0 h and the “AUC504-528, Observation” value [4, 32] was 860.3 µg·h/mL. The “Cmax, Observation” value [4, 32] was 52.7 µg/mL, the “Ctrough, Observation” value [4, 32] was 28.8 µg/mL and the “Tmax, Observation” value [4, 32] was 3.0 h. For the same compound, the “Slope of AUC vs dose, clinically determined value” [4, 33] was 0.46, the “BCRP1 Vmax” value (BCRP1 [5]) was 2.5 pmol/min and the “Inhibitor of CYP3A4” value (CYP3A4 [6]) was “weak inhibitor”. The Mean oral bioavailability ([7]; oral 800 mg dose in humans, ref Deng et al., 2013) was “approximately 21.4%”, the “Elimination via feces, administered radioactivity dose” value ([7]; ref Deng et al., 2013) was “approximately 82.2%” and the “Elimination via feces, unchanged drug” value ([7]; ref Deng et al., 2013) was 67%. For the same compound, the “Renal elimination, of the administered dose” value ([7]; ref Deng et al., 2013) was “approximately 2.6%” and the “Higher bioavailability of 400 mg dose than 800 mg dose” value [7, 33] was 40%.
